Data as given in US20240158426A1, “TRANSITION METAL COMPLEX CONTAINING TETRADENTATE NITROGEN DONOR LIGAND AND ELECTROCHEMICAL BIOSENSOR COMPRISING SAME” (I-sens, Inc., priority 2020, published 2024).

Test: Cyclic voltammetry (CV) of TPMA-based osmium complexes
Details: Cl^− counter ion form; Ag/AgCl reference electrode; scanning rate 10 mV/s
Method: In order to analyze electrochemical properties of the synthesized TPMA-based osmium complexes, cyclic voltammetry (CV) was used. A well-washed carbon glass electrode with a diameter of 3 mm was used as a working electrode, and an Ag/AgCl electrode was used as a reference electrode, and a Pt electrode was used as a counter electrode to measure it at a scanning rate of 10 mV/s. […] In order to find out only the position of the redox peak, the complex in a Cl^− counter ion form was measured in condition that the concentration of each substance was not constant, by measuring the Cl^− substance in a solution state during the anion exchange process. […] The change in the oxidation/reduction potential according to the type of the substituent and coordinated ligand was analyzed centering on the present complex.

[Os(TPMA)Cl2]^+(PF6^−) [Complex 18]
oxidation/reduction potential E1/2: −0.339 V
